# Data as given in patent US10800791B2, “Triazole ACC inhibitors and uses thereof” (Gilead Apollo, LLC, priority 2015, dated 2020).
# Where two headings read alike, the source gives them in different places.
# What was measured:
# human (hACC2) = human (hACC2) (Homo sapiens, UniProt O00763); experiment: In vitro ACC inhibition assay (ADP-Glo), hACC2; format: biochemical; details: 5 nM ACC2, 20 μM ATP, 20 μM acetyl-CoA
# Method: The detailed procedure is as follows. […] 10 μL ADP glo reagent was added. […] 20 μL kinase detection reagent was added.
# C. albicans = experiment: Antifungal Activity Assay (broth microtiter MIC), C. albicans; format: cell-based, Candida albicans; details: for MIC: Candida albicans, ATCC90028, 48 h
# Method: (§1) Compounds of the present invention were evaluated in an Antifungal Activity Assay. An exemplary procedure for the assay, which measures the susceptibility of various Candida species to antifungal compounds, follows. Compounds to be tested (including fluconazole and amphotericin B) were dissolved in DMSO to obtain a solution having a concentration of 1 mg/mL. These stock solutions were sterile filtered using a 0.22 um nylon syringe filter, then diluted in sterile water to achieve a final concentration of 128 μg/mL.
# (§2) All species were grown from frozen stock by directly plating on to freshly prepared Sabouraud Dextrose agar (BD, Difco) and incubated overnight in ambient air at 35° C. for 24 h. A direct suspension was prepared in RPMI 1640+MOPS (Lonza, Biowhittaker) by taking individual colonies from the overnight cultures using sterile swabs soaked in sterile saline. The concentration of the suspension was determined using pre-determined standard curves. These suspensions were then diluted down to 5×10^3 CFU/mL to achieve a final concentration of 2.5×10^3 CFU/mL once added to the microtiter plate as per CLSI guidelines (M27-A3, Vol. 28 No. 14).
# (§3) Broth microtiter MIC challenge plates were prepared following CLSI guidelines (M27-A3, Vol. 28 No. 14). The original CLSI guidelines focused on reading Candida MICs after 48 h of incubation. As reading after only 24 h offers a clear advantage of patient care, QC limits are being established for all drugs at 24 h. That being said there are no known interpretive breakpoints for amphotericin B at 24 h and the current fluconazole interpretive breakpoints are based on a 48 h reading. The MICs for the test compounds were recorded at 48 h. All MIC determinations were achieved by visually comparing the growth found in the antibiotic challenged wells to that of the growth control.
# C. krusei = experiment: Antifungal Activity Assay (broth microtiter MIC), C. krusei; format: cell-based, Candida krusei; details: for MIC: Pichia kudriavzevii, ATCC6258, 48 h
# Method: as §1, §2, §3
# C. parapsilosis = experiment: Antifungal Activity Assay (broth microtiter MIC), C. parapsilosis; format: cell-based, Candida parapsilosis; details: for MIC: Lodderomyces parapsilosis, ATCC22019, 48 h
# Method: as §1, §2, §3
# fungal (fACC2) = fungal (fACC2) (UniProt Q00955); details: read-out: fACC2 (in vitro ACC2 Inhibition Assay, IC50), ADP-Glo, 5 nM ACC2, 20 μM ATP, 20 μM acetyl-CoA
# [1] = Table 3b (additional results), ATCC 90028, 3 replicates, MIC recorded at 48 h, read-out: MIC, C. albicans ATCC 90028
# [2] = Table 3b (additional results), ATCC 6258, 3 replicates, MIC recorded at 48 h, read-out: MIC, C. krusei ATCC 6258
# [3] = Table 3b (additional results), ATCC 22019, 3 replicates, MIC recorded at 48 h, read-out: MIC, C. parapsilosis ATCC 22019
# [4] = Table 3a, ATCC 90028, 3 replicates, MIC recorded at 48 h, read-out: MIC, C. albicans ATCC 90028
# [5] = Table 3a, ATCC 6258, 3 replicates, MIC recorded at 48 h, read-out: MIC, C. krusei ATCC 6258
# [6] = Table 3a, ATCC 22019, 3 replicates, MIC recorded at 48 h, read-out: MIC, C. parapsilosis ATCC 22019
# [7] = Table 3a, 3 replicates, MIC recorded at 48 h
# [8] = read-out: MIC, C. albicans ATCC 90028, Table 3b (additional results), 3 replicates, MIC recorded at 48 h
# [9] = read-out: MIC, C. krusei ATCC 6258, Table 3b (additional results), 3 replicates, MIC recorded at 48 h
# [10] = read-out: MIC, C. parapsilosis ATCC 22019, Table 3b (additional results), 3 replicates, MIC recorded at 48 h
# Sequence of fungal (fACC2) (Q00955 whole entry): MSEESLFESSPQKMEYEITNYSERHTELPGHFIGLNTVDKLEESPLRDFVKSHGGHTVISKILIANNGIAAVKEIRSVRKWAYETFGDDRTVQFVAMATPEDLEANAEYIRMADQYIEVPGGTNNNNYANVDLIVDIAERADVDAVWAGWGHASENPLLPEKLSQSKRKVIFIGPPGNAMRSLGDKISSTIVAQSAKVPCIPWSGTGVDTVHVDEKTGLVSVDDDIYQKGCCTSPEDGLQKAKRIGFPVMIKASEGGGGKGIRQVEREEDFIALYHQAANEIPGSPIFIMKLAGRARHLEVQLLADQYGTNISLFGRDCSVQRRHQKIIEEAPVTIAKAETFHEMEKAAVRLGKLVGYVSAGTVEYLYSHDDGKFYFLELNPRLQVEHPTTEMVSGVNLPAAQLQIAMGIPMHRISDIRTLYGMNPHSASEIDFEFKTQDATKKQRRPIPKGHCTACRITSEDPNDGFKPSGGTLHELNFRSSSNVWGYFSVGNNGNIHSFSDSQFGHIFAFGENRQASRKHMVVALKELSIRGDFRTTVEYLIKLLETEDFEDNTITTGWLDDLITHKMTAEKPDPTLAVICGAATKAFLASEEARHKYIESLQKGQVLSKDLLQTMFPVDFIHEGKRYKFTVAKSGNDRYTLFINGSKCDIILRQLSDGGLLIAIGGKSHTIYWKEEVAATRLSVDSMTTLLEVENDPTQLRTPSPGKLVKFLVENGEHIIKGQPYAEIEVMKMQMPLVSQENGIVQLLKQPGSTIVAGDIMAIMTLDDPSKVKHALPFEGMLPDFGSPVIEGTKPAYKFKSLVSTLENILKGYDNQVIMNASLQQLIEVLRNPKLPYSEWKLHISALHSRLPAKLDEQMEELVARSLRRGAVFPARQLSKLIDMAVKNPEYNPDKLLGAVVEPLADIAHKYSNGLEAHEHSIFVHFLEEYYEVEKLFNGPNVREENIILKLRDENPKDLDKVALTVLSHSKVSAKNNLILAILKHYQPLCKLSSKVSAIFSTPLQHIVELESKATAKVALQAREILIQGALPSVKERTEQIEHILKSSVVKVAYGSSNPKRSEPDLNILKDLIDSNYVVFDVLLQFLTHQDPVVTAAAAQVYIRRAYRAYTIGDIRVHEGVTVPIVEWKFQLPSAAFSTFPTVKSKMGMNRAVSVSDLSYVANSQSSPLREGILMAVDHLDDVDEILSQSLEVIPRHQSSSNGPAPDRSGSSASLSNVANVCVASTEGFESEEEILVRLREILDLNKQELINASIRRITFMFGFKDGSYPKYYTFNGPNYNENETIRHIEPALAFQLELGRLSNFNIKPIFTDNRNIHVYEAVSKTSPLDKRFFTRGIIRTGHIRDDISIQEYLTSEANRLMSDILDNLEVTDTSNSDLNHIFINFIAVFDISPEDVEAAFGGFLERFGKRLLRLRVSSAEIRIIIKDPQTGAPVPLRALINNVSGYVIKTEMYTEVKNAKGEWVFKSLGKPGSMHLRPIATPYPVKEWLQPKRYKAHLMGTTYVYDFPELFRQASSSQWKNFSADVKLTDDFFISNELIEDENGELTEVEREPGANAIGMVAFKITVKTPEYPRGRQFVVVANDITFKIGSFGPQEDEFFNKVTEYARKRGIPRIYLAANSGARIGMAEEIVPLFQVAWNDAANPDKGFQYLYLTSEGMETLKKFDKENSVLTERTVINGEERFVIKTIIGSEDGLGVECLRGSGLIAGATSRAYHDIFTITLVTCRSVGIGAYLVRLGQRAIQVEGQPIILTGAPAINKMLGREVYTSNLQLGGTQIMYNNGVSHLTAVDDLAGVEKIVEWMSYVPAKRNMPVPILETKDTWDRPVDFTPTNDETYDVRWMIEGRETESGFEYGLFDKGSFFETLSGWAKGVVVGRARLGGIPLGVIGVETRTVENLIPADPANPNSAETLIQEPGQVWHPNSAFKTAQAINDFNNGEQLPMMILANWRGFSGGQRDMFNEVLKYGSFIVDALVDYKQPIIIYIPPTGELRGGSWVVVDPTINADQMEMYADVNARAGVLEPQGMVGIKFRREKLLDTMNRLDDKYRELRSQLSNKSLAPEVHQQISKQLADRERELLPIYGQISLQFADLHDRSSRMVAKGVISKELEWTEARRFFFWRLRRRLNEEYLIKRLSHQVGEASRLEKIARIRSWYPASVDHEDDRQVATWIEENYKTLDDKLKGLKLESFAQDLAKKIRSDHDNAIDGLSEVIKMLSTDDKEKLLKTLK
# Sequence of human (hACC2) (O00763 whole entry): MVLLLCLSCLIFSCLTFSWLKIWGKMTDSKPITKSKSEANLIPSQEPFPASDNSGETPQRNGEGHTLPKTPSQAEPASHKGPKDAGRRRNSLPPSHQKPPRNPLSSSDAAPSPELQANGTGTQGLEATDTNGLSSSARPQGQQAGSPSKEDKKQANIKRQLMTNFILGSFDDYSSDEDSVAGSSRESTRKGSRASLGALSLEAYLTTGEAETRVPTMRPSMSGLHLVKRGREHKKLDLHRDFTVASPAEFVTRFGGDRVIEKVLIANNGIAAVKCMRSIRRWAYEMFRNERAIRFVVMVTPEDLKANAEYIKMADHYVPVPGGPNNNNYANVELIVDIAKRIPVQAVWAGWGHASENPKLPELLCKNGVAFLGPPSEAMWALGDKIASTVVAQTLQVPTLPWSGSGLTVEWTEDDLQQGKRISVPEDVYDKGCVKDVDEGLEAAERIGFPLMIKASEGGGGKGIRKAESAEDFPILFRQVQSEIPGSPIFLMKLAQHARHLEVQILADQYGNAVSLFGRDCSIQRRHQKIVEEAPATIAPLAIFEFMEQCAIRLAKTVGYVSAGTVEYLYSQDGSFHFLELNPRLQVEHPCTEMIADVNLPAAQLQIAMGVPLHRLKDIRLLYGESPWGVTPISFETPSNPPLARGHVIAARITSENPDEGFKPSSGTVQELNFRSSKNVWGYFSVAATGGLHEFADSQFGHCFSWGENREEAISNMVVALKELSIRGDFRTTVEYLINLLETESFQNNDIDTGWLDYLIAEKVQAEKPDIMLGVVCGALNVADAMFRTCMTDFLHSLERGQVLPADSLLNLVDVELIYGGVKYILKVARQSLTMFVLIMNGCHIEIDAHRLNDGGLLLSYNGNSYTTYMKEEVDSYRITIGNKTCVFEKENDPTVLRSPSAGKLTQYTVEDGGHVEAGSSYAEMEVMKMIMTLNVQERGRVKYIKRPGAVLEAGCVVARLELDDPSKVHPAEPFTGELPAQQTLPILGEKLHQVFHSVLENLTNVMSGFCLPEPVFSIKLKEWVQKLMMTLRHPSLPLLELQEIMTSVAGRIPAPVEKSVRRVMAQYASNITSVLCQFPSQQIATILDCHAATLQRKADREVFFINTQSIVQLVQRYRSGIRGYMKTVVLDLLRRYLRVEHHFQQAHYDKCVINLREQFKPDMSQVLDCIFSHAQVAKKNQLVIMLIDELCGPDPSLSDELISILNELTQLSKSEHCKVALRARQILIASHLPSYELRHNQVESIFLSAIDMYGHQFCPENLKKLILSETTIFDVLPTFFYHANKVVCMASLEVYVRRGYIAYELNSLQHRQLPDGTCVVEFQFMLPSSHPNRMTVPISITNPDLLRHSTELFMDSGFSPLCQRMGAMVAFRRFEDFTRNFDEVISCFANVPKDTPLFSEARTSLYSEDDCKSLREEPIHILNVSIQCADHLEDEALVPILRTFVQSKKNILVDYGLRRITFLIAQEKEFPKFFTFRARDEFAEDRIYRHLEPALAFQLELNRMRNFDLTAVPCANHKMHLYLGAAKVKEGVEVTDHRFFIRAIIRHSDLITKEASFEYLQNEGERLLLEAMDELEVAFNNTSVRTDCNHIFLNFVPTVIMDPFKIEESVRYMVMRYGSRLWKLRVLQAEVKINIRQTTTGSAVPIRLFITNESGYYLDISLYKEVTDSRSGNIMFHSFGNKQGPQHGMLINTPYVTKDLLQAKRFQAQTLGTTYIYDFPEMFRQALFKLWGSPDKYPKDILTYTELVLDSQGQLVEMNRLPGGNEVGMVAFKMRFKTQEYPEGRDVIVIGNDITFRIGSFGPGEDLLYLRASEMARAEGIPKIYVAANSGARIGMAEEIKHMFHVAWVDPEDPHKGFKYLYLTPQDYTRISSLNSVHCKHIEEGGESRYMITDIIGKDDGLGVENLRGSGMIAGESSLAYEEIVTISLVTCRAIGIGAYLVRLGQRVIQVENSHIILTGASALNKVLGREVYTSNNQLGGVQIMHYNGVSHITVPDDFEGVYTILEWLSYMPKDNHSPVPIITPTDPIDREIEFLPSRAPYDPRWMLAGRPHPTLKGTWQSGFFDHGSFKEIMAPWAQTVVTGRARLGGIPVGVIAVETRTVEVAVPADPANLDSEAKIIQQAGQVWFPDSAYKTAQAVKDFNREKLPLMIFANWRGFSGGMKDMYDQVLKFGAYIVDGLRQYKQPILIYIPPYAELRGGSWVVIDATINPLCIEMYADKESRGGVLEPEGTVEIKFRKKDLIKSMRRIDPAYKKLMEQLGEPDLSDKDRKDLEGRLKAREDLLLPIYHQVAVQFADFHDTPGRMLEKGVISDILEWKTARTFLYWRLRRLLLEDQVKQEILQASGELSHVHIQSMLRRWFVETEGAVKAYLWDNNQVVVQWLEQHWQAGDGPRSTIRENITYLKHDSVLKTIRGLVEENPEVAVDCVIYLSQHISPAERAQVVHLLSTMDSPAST
SMILES,"IC50 (human (hACC2); Table 2b, additional results)",MIC (C. albicans; [1]),MIC (C. krusei; [2]),MIC (C. parapsilosis; [3]),"IC50 (fungal (fACC2); Table 2b, additional results)",IC50 (human (hACC2); Table 2a),MIC (C. albicans; [4]),MIC (C. krusei; [5]),MIC (C. parapsilosis; [6]),IC50 (fungal (fACC2); Table 2a),"MIC, C. albicans ATCC 90028 (C. albicans; [7])","MIC, C. krusei ATCC 6258 (C. krusei; [7])","MIC, C. krusei ATCC 6258 (C. krusei; Table 3b (additional results), 3 replicates, MIC recorded at 48 h)","MIC, C. parapsilosis ATCC 22019 (C. parapsilosis; [7])",MIC (C. albicans; [8]),MIC (C. krusei; [9]),MIC (C. parapsilosis; [10])
CCc1ccc(F)cc1[C@H](Cn1c(=O)n(C(C)(C)C(=O)NC(C)C)c(=O)c2c(C)c(-n3nccn3)sc21)OCC(C)(C)O (stereo in doubt) [Compound I-240],10 to 40 nM,1.01 to 2 µg/mL,> 4.01 µg/mL,2.01 to 4 µg/mL,1 to 5 nM,–,–,–,–,–,–,–,–,–,–,–,–
CCc1ccc(F)cc1[C@@H](Cn1c(=O)n(C(C)(C)C(=O)NC(C)C)c(=O)c2c(C)c(-n3nccn3)sc21)OCC(C)(C)O (stereo in doubt) [Compound I-241],> 40 nM,1.01 to 2 µg/mL,> 4.01 µg/mL,2.01 to 4 µg/mL,5 to 10 nM,–,–,–,–,–,–,–,–,–,–,–,–
"COCCO[C@@H](Cn1c(=O)n([C@@H](C)C(=O)NC(C)C)c(=O)c2c(C)c(-n3nccn3)sc21)c1cc(F)ccc1OC [Compound I-83, (S)-2-(1-((R)-2-(5-fluoro-2-methoxyphenyl)-2-(2-methoxy-ethoxy)ethyl)-5-methyl-2,4-dioxo-6-(2H-1,2,3-triazol-2-yl)-1,4-dihydrothieno[2,3-d]pyrimidin-3(2H)-yl)-N-isopropylpropanamide]",> 40 nM,> 4.01 µg/mL,2.01 to 4 µg/mL,1.01 to 2 µg/mL,1 to 5 nM,> 40 nM,2.1 to 4 µg/mL,2.1 to 4 µg/mL,2.1 to 4 µg/mL,1 to 5 nM,–,–,–,–,–,–,–
[2H]C([2H])([2H])Oc1ccccc1[C@H](Cn1c(=O)n(C(C)(C)C(N)=O)c(=O)c2c(C)c(-n3nccn3)sc21)OC1CCOCC1 [Compound I-92],5 to 10 nM,0.25 to 1 µg/mL,1.01 to 2 µg/mL,2.01 to 4 µg/mL,–,5 to 10 nM,0.25 to 1 µg/mL,0.25 to 1 µg/mL,1.1 to 2 µg/mL,–,–,–,–,–,–,–,–
COc1ccc(F)cc1[C@H](Cn1c(=O)n(C(C)(C)C(=O)O)c(=O)c2c(C)c(-n3nccn3)sc21)OC(C)C [Compound I-93],5 to 10 nM,2.01 to 4 µg/mL,1.01 to 2 µg/mL,> 4.01 µg/mL,–,5 to 10 nM,2.1 to 4 µg/mL,2.1 to 4 µg/mL,> 4.1 µg/mL,–,–,–,–,–,–,–,–
COc1ccc(F)cc1[C@H](Cn1c(=O)n(C(C)(C)C(=O)O)c(=O)c2c(C)c(-n3nccn3)sc21)OCC(C)C [Compound I-94],1 to 5 nM,2.01 to 4 µg/mL,2.01 to 4 µg/mL,> 4.01 µg/mL,–,1 to 5 nM,0.25 to 1 µg/mL,2.1 to 4 µg/mL,2.1 to 4 µg/mL,–,–,–,–,–,–,–,–
COc1ccc(F)cc1[C@H](Cn1c(=O)n(C(C)(C)C(=O)N2CC(O)C2)c(=O)c2c(C)c(-n3nccn3)sc21)OCC(C)C [Compound I-95],5 to 10 nM,2.01 to 4 µg/mL,1.01 to 2 µg/mL,2.01 to 4 µg/mL,–,5 to 10 nM,1.1 to 2 µg/mL,1.1 to 2 µg/mL,1.1 to 2 µg/mL,–,–,–,–,–,–,–,–
COc1ccccc1[C@H](Cn1c(=O)n(C(C)(C)C(=O)O)c(=O)c2c(C)c(-n3nccn3)sc21)OC1CCOCC1 [Compound I-96],1 to 5 nM,1.01 to 2 µg/mL,2.01 to 4 µg/mL,2.01 to 4 µg/mL,1 to 5 nM,1 to 5 nM,2.1 to 4 µg/mL,2.1 to 4 µg/mL,2.1 to 4 µg/mL,1 to 5 nM,–,–,–,–,–,–,–
COc1ccc(F)cc1[C@H](Cn1c(=O)n(C(C)(C)C(=O)NC(C)C)c(=O)c2c(C)c(-n3nccn3)sc21)OCC(C)=O [Compound I-97],1 to 5 nM,1.01 to 2 µg/mL,0.25 to 1 µg/mL,1.01 to 2 µg/mL,0.3 to 1 nM,1 to 5 nM,0.25 to 1 µg/mL,0.06 to 0.24 µg/mL,0.25 to 1 µg/mL,0.4 to 1 nM,–,–,–,–,–,–,–
COc1ccc(F)cc1[C@H](Cn1c(=O)n(C(C)(C)C(=O)N2CCCC2)c(=O)c2c(C)c(-n3nccn3)sc21)OCC(C)=O [Compound I-98],5 to 10 nM,1.01 to 2 µg/mL,2.01 to 4 µg/mL,1.01 to 2 µg/mL,1 to 5 nM,5 to 10 nM,2.1 to 4 µg/mL,0.25 to 1 µg/mL,2.1 to 4 µg/mL,1 to 5 nM,–,–,–,–,–,–,–
COc1ccc(F)cc1[C@H](Cn1c(=O)n(C(C)(C)C(=O)NC2CCCCC2)c(=O)c2c(C)c(-n3nccn3)sc21)OCC(C)=O [Compound I-99],1 to 5 nM,1.01 to 2 µg/mL,0.25 to 1 µg/mL,0.25 to 1 µg/mL,1 to 5 nM,1 to 5 nM,0.25 to 1 µg/mL,0.06 to 0.24 µg/mL,0.25 to 1 µg/mL,1 to 5 nM,–,–,–,–,–,–,–
COCCO[C@@H](Cn1c(=O)n(C(C)(C)C(=O)NC2CCC2)c(=O)c2c(C)c(-n3nccn3)sc21)c1cc(F)ccc1OC [Compound I-100],1 to 5 nM,2.01 to 4 µg/mL,–,0.25 to 1 µg/mL,1 to 5 nM,1 to 5 nM,–,–,–,1 to 5 nM,A (MIC of 0.25-1.0 μg/mL),AA (MIC of 0.06-0.24 μg/mL),A (MIC of 0.25-1.0 μg/mL),A (MIC of 0.25-1.0 μg/mL),–,–,–
COc1ccccc1[C@H](Cn1c(=O)n(C(C)(C)C(=O)N2CC=CC2)c(=O)c2c(C)c(-n3nccn3)sc21)OC1CCOCC1 [Compound I-101],5 to 10 nM,1.01 to 2 µg/mL,1.01 to 2 µg/mL,1.01 to 2 µg/mL,1 to 5 nM,5 to 10 nM,0.25 to 1 µg/mL,0.25 to 1 µg/mL,0.25 to 1 µg/mL,1 to 5 nM,–,–,–,–,–,–,–
COc1ccc(F)cc1[C@H](Cn1c(=O)n(C(C)C(=O)NC(C)C)c(=O)c2c(C)c(-n3nccn3)sc21)OCC(C)(C)O (some centres unmarked) [Compound I-132],–,1.01 to 2 µg/mL,2.01 to 4 µg/mL,1.01 to 2 µg/mL,–,–,0.25 to 1 µg/mL,0.25 to 1 µg/mL,0.25 to 1 µg/mL,–,–,–,–,–,–,–,–
COc1ccc(F)cc1[C@H](Cn1c(=O)n(C(C)(C)C(=O)NC(C)C)c(=O)c2c(C)c(-n3nccn3)sc21)OC(C)(C)C(C)=O [Compound I-178],10 to 40 nM,–,–,–,–,10 to 40 nM,–,–,–,–,–,–,–,–,0.25 to 1 µg/mL,0.25 to 1 µg/mL,0.25 to 1 µg/mL
COc1ccccc1[C@@H](O)Cn1c(=O)n(C(C)(C)C(=O)OCc2ccccc2)c(=O)c2c(C)c(-n3nccn3)sc21 [Compound I-179],> 40 nM,> 4.01 µg/mL,> 4.01 µg/mL,2.01 to 4 µg/mL,–,> 40 nM,–,–,–,–,–,–,–,–,–,–,–
COc1ccc(F)cc1[C@H](Cn1c(=O)n(C(C)(C)C(=O)N2CC=CC2)c(=O)c2c(C)c(-n3nccn3)sc21)OCC(C)=O [Compound I-190],5 to 10 nM,> 4.01 µg/mL,> 4.01 µg/mL,2.01 to 4 µg/mL,–,–,–,–,–,–,–,–,–,–,–,–,–
Cc1c(-n2nccn2)sc2c1c(=O)n(C(C)(C)C(=O)NC(C)C)c(=O)n2C[C@H](O)c1cc(F)ccc1OCC#N [Compound I-199],5 to 10 nM,–,–,–,–,–,–,–,–,–,–,–,–,–,2.01 to 4 µg/mL,2.01 to 4 µg/mL,1.01 to 2 µg/mL
Cc1c(-n2nccn2)sc2c1c(=O)n(C(C)(C)C(=O)NC(C)C)c(=O)n2C[C@H](OCC(C)(C)O)c1cc(F)ccc1O [Compound I-236],10 to 40 nM,1.01 to 2 µg/mL,2.01 to 4 µg/mL,2.01 to 4 µg/mL,–,–,–,–,–,–,–,–,–,–,–,–,–
